PMC8688747 (Drug Design, Development and Therapy, 2021)
Read-outs that look alike come from different tables or passages of the source.

Assays:
[1] = molecular target: T1, Mcl-1 (myeloid cell leukemia-1) (Homo sapiens, UniProt Q07820); test: 1H-15N HSQC NMR titration; format: binding
[2] = molecular target: T1, Mcl-1 (myeloid cell leukemia-1); test: 1H-15N HSQC NMR titration; format: binding; remark: listed apart in the source

T1 sequence (Q07820 172-327): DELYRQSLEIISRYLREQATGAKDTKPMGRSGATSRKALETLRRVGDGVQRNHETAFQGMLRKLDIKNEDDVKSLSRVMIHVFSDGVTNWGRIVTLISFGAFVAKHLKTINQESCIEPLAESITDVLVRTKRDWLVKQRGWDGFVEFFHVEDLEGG

Kd [1]	Kd [2]	SMILES
~1000 µM		Cc1cccc(Nc2ccncc2S(=O)(=O)NC(=O)NC(C)C)c1 [Torsemide]
	~300 µM	O=C(O)c1ccc(-n2nc(-c3ccccc3O)nc2-c2ccccc2O)cc1 [Deferasirox]
